Bounds are passed on as bounds.

In the experiment the target is human 5-HT2C(VSV) (Homo sapiens, UniProt P28335, I156V/I160V/N158S). The experiment in a line: cell-based.
human 5-HT2C(VSV), sequence (P28335 33-458 I156V/N158S/I160V limits assumed): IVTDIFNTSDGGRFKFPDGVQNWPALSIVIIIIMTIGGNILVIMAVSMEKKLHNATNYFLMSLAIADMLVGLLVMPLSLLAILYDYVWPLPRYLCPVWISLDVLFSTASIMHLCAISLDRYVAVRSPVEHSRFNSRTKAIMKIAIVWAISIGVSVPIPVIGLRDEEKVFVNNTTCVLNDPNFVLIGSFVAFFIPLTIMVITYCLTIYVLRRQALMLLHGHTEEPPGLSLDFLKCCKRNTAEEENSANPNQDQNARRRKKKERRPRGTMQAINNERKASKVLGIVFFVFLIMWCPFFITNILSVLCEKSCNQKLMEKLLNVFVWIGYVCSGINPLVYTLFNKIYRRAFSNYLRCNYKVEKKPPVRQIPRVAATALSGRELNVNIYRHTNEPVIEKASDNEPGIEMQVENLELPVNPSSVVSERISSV
On to `COc1ccc(S(=O)(=O)c2ccccc2)c2c1c(CCN(C)C)cn2C` [25-1, 2-(4-methoxy-1-methyl-7-(phenylsulfonyl)-1H-indol-3-yl)-N,N-dimethylethanamine], for which the EC50 (in general, the concentration giving half of the maximal effect) is 1 to 500 nM.

Consider `COc1c(F)ccc2c1c(CCNCCCCc1ccccc1)cn2C` [17-13, N-(2-(5-fluoro-4-methoxy-1-methyl-1H-indol-3-yl)ethyl)-4-phenylbutan-1-amine], for which the concentration giving a half-maximal response (EC50) fell in the range of 1 to 500 nM.

On to `CCOc1c(F)ccc2c1c(CCNCc1cccs1)cn2C` [30-28, 2-(4-ethoxy-5-fluoro-1-methyl-1H-indol-3-yl)-N-(thiophen-2-ylmethyl)ethanamine], for which the EC50 was in the range of 1 to 500 nM.

Take `CNCCc1cn(C)c2c(F)cc(-c3ccccc3)c(OC)c12` [22-5, 2-(7-fluoro-4-methoxy-1-methyl-5-phenyl-1H-indol-3-yl)-N-methylethanamine]: the concentration for a half-maximal effect (EC50) was 1 to 500 nM.

Regarding `CNCCc1cn(C)c2cc(F)cc(OCc3ccc(Cl)cc3)c12` [33-45, 2-(4-(4-chlorobenzyloxy)-6-fluoro-1-methyl-1H-indol-3-yl)-N-methylethanamine], the concentration giving a half-maximal response (EC50) was 1 to 500 nM.

`CNCCc1cn(C)c2ccc(F)c(OCc3ccc(Cl)cc3Cl)c12` [33-48, 2-(4-(2,4-dichlorobenzyloxy)-5-fluoro-1-methyl-1H-indol-3-yl)-N-methylethanamine] came in with a concentration giving a half-maximal response (EC50) of under 10000 nM.

Take `CNCCc1cn(C)c2ccc(F)c(OCc3ccccc3Cl)c12` [33-23, 2-(4-(2-chlorobenzyloxy)-5-fluoro-1-methyl-1H-indol-3-yl)-N-methylethanamine]: the concentration giving a half-maximal response (EC50) is 1 to 500 nM.

The molecule `COc1ccc(F)c2c1c(CCN1CCOCC1)cn2C` [11-9, 4-(2-(7-fluoro-4-methoxy-1-methyl-1H-indol-3-yl)ethyl)morpholine] displayed a 50% effective concentration (EC50) of 1 to 500 nM.

For the molecule `CCn1cc(CCN(C)C)c2c(OCc3ccc(Cl)cc3)cc(F)cc21` [1-10b, 2-(4-(4-chlorobenzyloxy)-1-ethyl-6-fluoro-1H-indol-3-yl)-N,N-dimethylethanamine], the 50% effective concentration (EC50) is 500 to 10000 nM.

In the case of `CNCCc1cn(C)c2ccc(F)c(OCCc3ccccc3C)c12` [33-17, 2-(5-fluoro-1-methyl-4-(2-methylphenethoxy)-1H-indol-3-yl)-N-methylethanamine], the EC50 fell in the range of 1 to 500 nM.

In turn, `CCOc1c(F)ccc2c1c(CCNCc1cccc(C(F)(F)F)c1)cn2C` [30-22, 2-(4-ethoxy-5-fluoro-1-methyl-1H-indol-3-yl)-N-(3-(trifluoromethyl)benzyl)ethanamine] registered a concentration giving a half-maximal response (EC50) of 1 to 500 nM.

Turning to `CCn1cc(CCNCc2ccccc2C)c2c(OC)ccc(F)c21` [20-9, 2-(1-ethyl-7-fluoro-4-methoxy-1H-indol-3-yl)-N-(2-methylbenzyl)ethanamine], the EC50 is 1 to 500 nM.

`CN(C)CCc1cn(C)c2ccc(F)c(OCc3cccs3)c12` [1-20a, 2-(5-fluoro-1-methyl-4-(thiophen-2-ylmethoxy)-1H-indol-3-yl)-N,N-dimethylethanamine] showed a concentration for a half-maximal effect (EC50) of 1 to 500 nM.

`CCn1cc(CCN2CCC(F)(F)C2)c2c(O)cc(F)cc21` [11-14, 3-(2-(3,3-difluoropyrrolidin-1-yl)ethyl)-1-ethyl-6-fluoro-1H-indol-4-ol] gave a half-maximal effective concentration (EC50) of 500 to 10000 nM.

On to `CCn1cc(CCN(C)C)c2c(Oc3ccccc3[N+](=O)[O-])ccc(F)c21` [2-2, 2-(1-ethyl-7-fluoro-4-(2-nitrophenoxy)-1H-indol-3-yl)-N,N-dimethylethanamine], for which the half-maximal effective concentration (EC50) was 500 to 10000 nM.

Take `CCn1cc(CCN2CCCOCC2)c2c(O)cc(F)cc21` [11-12, 3-(2-(1,4-oxazepan-4-yl)ethyl)-1-ethyl-6-fluoro-1H-indol-4-ol]: the 50% effective concentration (EC50) was 500 to 10000 nM.

`COc1ccc(CNCCc2cn(C)c3ccc(F)c(OC)c23)cc1OC` [34-8, N-(3,4-dimethoxybenzyl)-2-(5-fluoro-4-methoxy-1-methyl-1H-indol-3-yl)ethanamine] showed an EC50 of 1 to 500 nM.

Molecule `COc1ccc(-c2ccc[nH]2)c2c1c(CCN(C)C)cn2C` [6-10, 2-(4-methoxy-1-methyl-7-(1H-pyrrol-2-yl)-1H-indol-3-yl)-N,N-dimethylethanamine] displayed a concentration for a half-maximal effect (EC50) of 500 to 10000 nM.

Regarding `CCn1cc(CCNC(C)c2ccccc2)c2c(OC)ccc(F)c21` (stereo not drawn) [20-8, 2-(1-ethyl-7-fluoro-4-methoxy-1H-indol-3-yl)-N-(1-phenylethyl)ethanamine], the EC50 was 1 to 500 nM.

On to `COc1c(F)ccc2c1c(CCN[C@H]1CCCc3ccccc31)cn2C` [17-16, (S)-N-(2-(5-fluoro-4-methoxy-1-methyl-1H-indol-3-yl)ethyl)-1,2,3,4-tetrahydronaphthalen-1-amine], for which the EC50 lay within 1 to 500 nM.

Molecule `CNCCc1cn(C)c2ccc(F)c(OCc3ccccc3C(F)(F)F)c12` [33-31, 2-(5-fluoro-1-methyl-4-(2-(trifluoromethyl)benzyloxy)-1H-indol-3-yl)-N-methylethanamine] came in with an EC50 of 1 to 500 nM.

`CCn1cc(CCN(C)C)c2c(OCc3cccc(C(F)(F)F)c3)cc(F)cc21` [1-16b, 2-(1-ethyl-6-fluoro-4-(3-(trifluoromethyl)benzyloxy)-1H-indol-3-yl)-N,N-dimethylethanamine] came in with an EC50 of 500 to 10000 nM.

In the case of `CCn1cc(CCN(C)C)c2c(OC)c(CCCO)cc(F)c21` [27-3, 3-(3-(2-(dimethylamino)ethyl)-1-ethyl-7-fluoro-4-methoxy-1H-indol-5-yl)propan-1-ol], the EC50 lay in the range of 1 to 500 nM.

Regarding `CCn1cc(CCN(C)C)c2c(OCc3ccsc3)cc(F)cc21` [1-19b, 2-(1-ethyl-6-fluoro-4-(thiophen-3-ylmethoxy)-1H-indol-3-yl)-N,N-dimethylethanamine], the concentration giving a half-maximal response (EC50) lay within 1 to 500 nM.

As to `CCn1cc(CCN(C)C)c2c(OCc3ccc(F)cc3)cc(F)cc21` [1-14b, 2-(1-ethyl-6-fluoro-4-(4-fluorobenzyloxy)-1H-indol-3-yl)-N,N-dimethylethanamine], the EC50 lay within 1 to 500 nM.

In turn, `COc1ccc(C#CCO)c2c1c(CCN(C)C)cn2C` [6-11, 3-(3-(2-(dimethylamino)ethyl)-4-methoxy-1-methyl-1H-indol-7-yl)prop-2-yn-1-ol] gave an EC50 of 1 to 500 nM.

Molecule `CCCn1cc(CCNC)c2c(OCc3cccc4ccccc34)c(F)ccc21` [33-39, 2-(5-fluoro-4-(naphthalen-1-ylmethoxy)-1-propyl-1H-indol-3-yl)-N-methylethanamine] came in with a concentration giving a half-maximal response (EC50) of 1 to 500 nM.

In the case of `COc1ccc(CCCO)c2c1c(CCN(C)C)cn2C` [25-4, 3-(3-(2-(dimethylamino)ethyl)-4-methoxy-1-methyl-1H-indol-7-yl)propan-1-ol], the concentration for a half-maximal effect (EC50) is 500 to 10000 nM.

Regarding `CCn1cc(CCN(C)C)c2c(OC)c(CCCN)cc(F)c21` [28-4, 3-(3-(2-(dimethylamino)ethyl)-1-ethyl-7-fluoro-4-methoxy-1H-indol-5-yl)propan-1-amine], the EC50 is 1 to 500 nM.

`NCCc1cn(CCOc2ccccc2)c2ccc(F)c(O)c12` [19-4, 3-(2-aminoethyl)-5-fluoro-1-(2-phenoxyethyl)-1H-indol-4-ol] registered a half-maximal effective concentration (EC50) of 1 to 500 nM.

For `CNCCc1cn(C)c2ccc(F)c(OCc3cccc(Cl)c3)c12` [33-8, 2-(4-(3-chlorobenzyloxy)-5-fluoro-1-methyl-1H-indol-3-yl)-N-methylethanamine], the concentration for a half-maximal effect (EC50) was in the range of 1 to 500 nM.

Take `COc1cc(F)cc2c1c(CCN(C)C)cn2S(=O)(=O)c1ccccc1` [15-2, 2-(6-fluoro-4-methoxy-1-(phenylsulfonyl)-1H-indol-3-yl)-N,N-dimethylethan amine]: the concentration giving a half-maximal response (EC50) was 500 to 10000 nM.

Molecule `COc1c(F)ccc2c1c(CCN1CCNCC1)cn2C` [17-10, 5-fluoro-4-methoxy-1-methyl-3-(2-(piperazin-1-yl)ethyl)-1H-indole] displayed an EC50 of 500 to 10000 nM.

As for `CCn1cc(CCNCc2ccccc2)c2c(OC)cc(F)cc21` [39-4, N-benzyl-2-(1-ethyl-6-fluoro-4-methoxy-1H-indol-3-yl)ethanamine], the EC50 fell in the range of 1 to 500 nM.

`CCOc1c(F)ccc2c1c(CCNC1CCc3ccccc31)cn2C` (stereo not drawn) [30-19, N-(2-(4-ethoxy-5-fluoro-1-methyl-1H-indol-3-yl)ethyl)-2,3-dihydro-1H-inden-1-amine] returned a half-maximal effective concentration (EC50) of 1 to 500 nM.

Turning to `CNCCc1cn(C)c2c(F)cc(CCc3ccccc3)c(OC)c12` [23-4, 2-(7-fluoro-4-methoxy-1-methyl-5-phenethyl-1H-indol-3-yl)-N-methylethanamine], the concentration for a half-maximal effect (EC50) fell in the range of 500 to 10000 nM.

`CCOc1c(F)ccc2c1c(CCNCCc1ccc3c(c1)OCO3)cn2C` [30-26, 2-(benzo[d][1,3]dioxol-5-yl)-N-(2-(4-ethoxy-5-fluoro-1-methyl-1H-indol-3-yl)ethyl)ethanamine] returned an EC50 of 1 to 500 nM.

As to `CNCCc1cn(C)c2ccc(F)c(OCCOc3ccccc3)c12` [33-14, 2-(5-fluoro-1-methyl-4-(2-phenoxyethoxy)-1H-indol-3-yl)-N-methylethanamine], the EC50 lay in the range of 1 to 500 nM.

Molecule `COc1ccc(-c2ccccc2)c2c1c(CCN(C)C)cn2C` [6-6, 2-(4-methoxy-1-methyl-7-phenyl-1H-indol-3-yl)-N,N-dimethylethanamine] returned a concentration giving a half-maximal response (EC50) of 1 to 500 nM.

In turn, `CNCCc1cn(C)c2ccc(F)c(OC(C)c3ccccc3)c12` (stereo not drawn) [33-32, 2-(5-fluoro-1-methyl-4-(1-phenylethoxy)-1H-indol-3-yl)-N-methylethanamine] returned an EC50 of 1 to 500 nM.

In the case of `CCn1cc(CCNCc2cccc(Cl)c2)c2c(O)cc(F)cc21` [31-11, 3-(2-(3-chlorobenzylamino)ethyl)-1-ethyl-6-fluoro-1H-indol-4-ol], the EC50 fell in the range of 1 to 500 nM.

For `COc1ccc(-c2cccs2)c2c1c(CCN(C)C)cn2C` [6-7, 2-(4-methoxy-1-methyl-7-(thiophen-2-yl)-1H-indol-3-yl)-N,N-dimethylethanamine], the EC50 was in the range of 500 to 10000 nM.

The molecule `COc1ccc(-c2cccnc2)c2c1c(CCN(C)C)cn2C` [6-14, 2-(4-methoxy-1-methyl-7-(pyridin-3-yl)-1H-indol-3-yl)-N,N-dimethylethanamine] showed a concentration for a half-maximal effect (EC50) of 1 to 500 nM.

Molecule `CCn1cc(CCNCc2cccc(C(F)(F)F)c2)c2c(OCc3ccccc3)cc(F)cc21` [31-8, 2-(4-(benzyloxy)-1-ethyl-6-fluoro-1H-indol-3-yl)-N-(3-(trifluoromethyl)benzyl)ethanamine] registered an EC50 of 500 to 10000 nM.

For the molecule `CNCCc1cn(C)c2cc(F)cc(OCc3cccc(Cl)c3)c12` [33-46, 2-(4-(3-chlorobenzyloxy)-6-fluoro-1-methyl-1H-indol-3-yl)-N-methylethanamine], the 50% effective concentration (EC50) is 1 to 500 nM.

The record behind these values is patent US8912220B2 (priority 2009, dated 2014).
